Data taken from PMC6116705, “Design, synthesis, in vitro antiproliferative activity and apoptosis-inducing studies of 1-(3′,4′,5′-trimethoxyphenyl)-3-(2′-alkoxycarbonylindolyl)-2-propen-1-one derivatives obtained by a molecular hybridisation approach” (Journal of Enzyme Inhibition and Medicinal Chemistry, 2018).
Where two headings read alike, the source gives them in different places.

Legend:
Format in all cases: cell-based
[1] = tested on: human colon adenocarcinoma (HT29) cells; assay: Antiproliferative assay, cell counting (Coulter Counter), HT29; conditions: for fold more potent than CA-4: HT29 cell line, ratio of IC50 values
Procedure: (§1) Human cervix carcinoma (HeLa), human colon carcinoma (HT29), human breast carcinoma (MCF-7) and human lymphoma (HL-60) cells (3–5 × 10^4 cells) and a serial (five-fold) dilution of the test compounds were added to a 96-well microtiter plate. The cells were incubated for 72–96 h (depending on the tumor cell line) at 37 °C in a humidified 5% CO2 atmosphere. At the end of the incubation period, the cells were counted in a Coulter Counter (Coulter Electronics Ltd, Harpenden Herts, UK). […] The IC50 values represent the average (±standard deviation) of at least two to four independent experiments.

[2] = tested on: human myeloid leukaemia U-937 cells; assay: MTT cytotoxicity assay, U-937; conditions: U-937, MTT, 72 h, read-out: IC50, inhibition of cell growth
Procedure: (§2) U-937 (human myeloid leukaemia) cells from DSMZ (German Collection of Microorganisms and Cell Cultures, Braunschweig, Germany) and U-937 cells overexpressing human Bcl-2 protein (designated U-937/Bcl-2, donated by Dr Jacqueline Bréard, INSERM U749, Faculté de Pharmacie Paris-Sud., Châtenay-Malabry, France) were cultured in RPMI-1640 medium containing 10% (v/v) heat-inactivated foetal bovine serum, 100 μg/mL streptomycin and 100 U/mL penicillin, incubated at 37 °C in a humidified atmosphere containing 5% CO2 as described. The functioning of U-937/Bcl-2 cells was tested using the cytotoxic agent 1-β-D-arabino-furanosylcytosine as previously described. Human peripheral blood mononuclear cells (PBMC) were isolated from heparin-anticoagulated blood of healthy volunteers by centrifugation with Ficoll-Paque Plus (GE Healthcare Bio-Sciences AB, Uppsala, Sweden). PBMC were also stimulated with phytohemagglutinin (2 μg/mL) for 48 h before the experimental treatment. The trypan blue dye exclusion method was used for counting the living/dead cells by a hematocytometer with 95% viability in all experiments. The cytotoxicity of compounds was evaluated by the colorimetric 3-(4,5-dimethyl-2-thiazolyl-)-2,5-diphenyl-2H-tetrazolium bromide (MTT) assay as previously described. Briefly, 5 × 10^3 exponentially growing cells were seeded in 96-well microculture plates with increasing concentrations of compounds for 72 h. After the addition of MTT (0.5 mg/mL), cells were incubated at 37 °C for 4 h. Sodium dodecyl sulphate (10% w/v) in 0.05 M HCl was added to the wells and then incubated at room temperature overnight in the dark. Absorbance was measured at 570 nm. […] Values are mean ± SE from at least three independent experiments, each performed in triplicate. Compounds were dissolved in DMSO and kept in the dark at 25 °C.

[3] = tested on: U-937 cells overexpressing human Bcl-2 (U-937/Bcl-2); assay: MTT cytotoxicity assay, U-937/Bcl-2; conditions: U-937/Bcl-2, MTT, read-out: IC50, inhibition of cell growth
Procedure: as §2

[4] = tested on: human cervix carcinoma (HeLa) cells; assay: Antiproliferative assay, cell counting (Coulter Counter), HeLa; conditions: 72–96 h, read-out: IC50, inhibition of proliferation
Procedure: as §1

[5] = tested on: human breast adenocarcinoma (MCF-7) cells; assay: Antiproliferative assay, cell counting (Coulter Counter), MCF-7; conditions: for fold more potent than CA-4: MCF-7 cells, ratio of IC50 values
Procedure: as §1

| Compound | fold more potent than CA-4 [1] | IC50 [2] [µM] | IC50 ([3]; Homo sapiens, U-937, 72 h) [µM] | IC50 ([1]; Homo sapiens, HT-29, HT29, 72–96 h, read-out: IC50, inhibition of proliferation) [µM] | IC50 ([4]; Homo sapiens) [µM] | IC50 ([5]; Homo sapiens, MCF7, MCF-7, 72–96 h, read-out: IC50, inhibition of proliferation) [µM] | fold more potent than CA-4 [5] | IC50 ([3]; 72 h) [µM] | IC50 [4] [µM] |
| --- | --- | --- | --- | --- | --- | --- | --- | --- | --- |
| CCOC(=O)c1[nH]c2ccc(OC)cc2c1/C=C/C(=O)c1cc(OC)c(OC)c(OC)c1 [Compound 9d, (E)-Ethyl 5-methoxy-3-(3-oxo-3-(3,4,5-trimethoxyphenyl)prop-1-en-1-yl)-1H-indole-2-carboxylate] | 8–24 fold | 2.9 ± 0.7 | 0.7 ± 0.2 |  |  |  |  |  |  |
| COC(=O)c1[nH]c2cc(OC)ccc2c1/C=C/C(=O)c1cc(OC)c(OC)c(OC)c1 [Compound 9e, (E)-Methyl 6-methoxy-3-(3-oxo-3-(3,4,5-trimethoxyphenyl)prop-1-en-1-yl)-1H-indole-2-carboxylate] | 8–24 fold | 5.7 ± 0.1 | ~1 | 0.16 ± 0.02 | 0.37 ± 0.18 | 0.17 ± 0.03 | 1.5–2 fold | 1.1 ± 1 |  |
| CCOC(=O)c1[nH]c2cc(OC)ccc2c1/C=C/C(=O)c1cc(OC)c(OC)c(OC)c1 [Compound 9f, (E)-Ethyl 6-methoxy-3-(3-oxo-3-(3,4,5-trimethoxyphenyl)prop-1-en-1-yl)-1H-indole-2-carboxylate] | 8–24 fold | 6.5 ± 1.7 | 1 ± 0.8 |  | < 1 |  | 1.5–2 fold |  | 0.84 ± 0.39 |
